This note sets out measurements from patent publication US20110207807A1, “NEW USE FOR HOMOISOFLAVONE OR A SALT THEREOF” (Catholic University Industry Academy Cooperation Foundation, priority 2008, published 2011).

Molecules are shown by their SMILES.

Assay [1] concerns leukotriene B4. As to the kind of experiment: Release of leukotriene B4 induced by PMA and A23187 in HMC-1 (enzyme immunoassay). It counts as cell-based, human. An excerpt: (§1) Phorbol 12-myristate 13-acetate and A23187 lead to degranulation of human mast cells (HMC), causing the mast cells to release not only their histamine or serotonin but also newly produced inflammatory factors such as pro-inflammatory cytokines, prostaglandins and leukotrienes. It was investigated whether homoisoflavanone has anti-inflammatory effect in mast cells as in Examples 4 and 5. In order to investigate the effect of homoisoflavanone on the release of leukotriene induced by phorbol 12-myristate 13-acetate and A23187 in HMC-1, 1×10^6 HMC-1 cells were inoculated on a 100-mm culture dish and cultured in Iscove's modified Dulbecco's medium (IMDM, GIBCO) containing 10% FBS for 48 hours. Then, after treating with homoisoflavanone at 2 μg/mL or with mizolastine at 10 μg/mL for comparison for 1 hour, the cells were treated with 50 nM phorbol 12-myristate 13-acetate and 1 μM A23187 to induce release of leukotriene, and then further cultured for 21 hours. Then, the supernatant was collected and the quantity of released leukotriene B4 and C4 was measured using a leukotriene B4, C4 enzyme immunoassay kit (Sapphire Bioscience, Australia).

Assay [2] relates to leukotriene C4. As to the kind of experiment: Release of leukotriene C4 induced by PMA and A23187 in HMC-1 (enzyme immunoassay). It counts as cell-based. The conditions noted are these: Homo sapiens, HMC1; HMC-1, homoisoflavanone 2 μg/mL or mizolastine 10 μg/mL, 50 nM PMA + 1 μM A23187, 21 hours (FIG. 6b).
Excerpt: as §1

By inhibition is commonly meant the percentage by which the read-out fell short of the control. Take `CN(c1nccc(=O)[nH]1)C1CCN(c2nc3ccccc3n2Cc2ccc(F)cc2)CC1` [mizolastine, reference compound]: the “leukotriene B4 release when treated alone, versus non-treated group” value in assay [1] (HMC-1, homoisoflavanone 2 μg/mL or mizolastine 10 μg/mL alone, without PMA/A23187 (FIG. 6a)) is “no appreciable difference”. Besides, the inhibition at 10 µg/mL in assay [1] (Homo sapiens, HMC1, HMC-1, homoisoflavanone 2 μg/mL or mizolastine 10 μg/mL, 50 nM PMA + 1 μM A23187, 21 hours (FIG. 6a)) was 20%; in assay [2], not below 90%.
